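These data come from cells grown in 96-well plates and exposed to compound for 48 hours at five concentrations. Here, GI50 denotes the concentration required for 50% inhibition of growth. TGI is the concentration that stops growth completely.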 Where a SMILES comes first, the peptide text is derived from it. Bridges are numbered along the chain shown (N, C = ends). Roman numbers before positions name the chains, in order. [ ]: non-standard residue; d: D form. The star is where a group is joined. Quinoxaline2carbonyl = O=C(c1cnc2ccccc2n1)*; NMeV = CN[CH](C(=O)O)C(C)C; NMeC = CN[CH](CS)C(=O)O
Legend:
Assay in all cases: NCI anticancer screen, dose series, 48 h
[1] = tested on: K-562 leukemia
[2] = tested on: OVCAR-3 ovarian
[3] = tested on: HCT-116 colon
[4] = tested on: TK-10 renal
[5] = tested on: SNB-19 CNS
[6] = tested on: HCC-2998 colon
[7] = tested on: ACHN renal
[8] = tested on: PC-3 prostate
[9] = tested on: MALME-3M melanoma
[10] = tested on: IGROV1 ovarian

Q: Which results are given for `CC(C)(C)c1ccc(C(=O)Nc2sc3c(c2C(N)=O)CCC(=O)C3)cc1`?
A: GI50 [1]: 0.127 µM; GI50 [2]: 0.426 µM; TGI [2]: 1.52 µM; GI50 [3]: 0.287 µM; TGI [3]: 1.29 µM; GI50 [4]: 1.42 µM; TGI [4]: 4.77 µM; GI50 [5]: 0.457 µM; TGI [5]: 1.94 µM; GI50 [6]: 1.97 µM; TGI [6]: 4.22 µM; GI50 [7]: 0.352 µM; TGI [7]: 1.1 µM; GI50 [8]: 0.188 µM; TGI [8]: 1.48 µM; GI50 [9]: 0.906 µM; TGI [9]: 2.66 µM; GI50 [10]: 0.684 µM; TGI [10]: 2.29 µM

Q: `CC1NC(=O)C(NC(=O)c2cnc3ccccc3n2)COC(=O)C(C(C)C)N(C)C(=O)C2CSSCC(C(=O)N(C)C(C(C)C)C(=O)OCC(NC(=O)c3cnc4ccccc4n3)C(=O)NC(C)C(=O)N2C)N(C)C1=O` (stereo not drawn) (I: Quinoxaline2carbonyl-SA[NMeC][NMeV] / II: Quinoxaline2carbonyl-SA[NMeC][NMeV]; ester I:1-II:C, I:C-II:1; disulfide I:3-II:3; configuration not given here) was tested. Which TGI [1] did it give?
A: > 51.5 µM

Q: And the TGI [2]?
A: > 100 µM

Q: And the TGI [3]?
A: 14 µM

Q: And the TGI [4]?
A: > 5.39 µM

Q: What about the TGI [5] of the same compound?
A: > 100 µM

Q: And the TGI [6]?
A: < 0.01 µM

Q: What about the TGI [7] of the same compound?
A: 11.9 µM

Q: And the TGI [8]?
A: 1.68 µM

Q: What about the TGI [9] of the same compound?
A: < 0.01 µM

Q: For `CC(C)(C)CN1CCn2c(nc3c(N)nccc32)S1`, which GI50 [1] is on record?
A: 4.64 µM

Q: And the TGI [1]?
A: 67.7 µM

Q: What about the GI50 [2] of the same compound?
A: 12.3 µM

Q: And the TGI [2]?
A: 29.3 µM

Q: What about the GI50 [3] of the same compound?
A: 4.61 µM

Q: What about the TGI [3] of the same compound?
A: 17.1 µM

Q: And the GI50 [4]?
A: 16.6 µM

Q: What about the TGI [4] of the same compound?
A: > 100 µM

Q: What about the GI50 [5] of the same compound?
A: 32.8 µM

Q: And the TGI [5]?
A: > 100 µM

Q: And the GI50 [6]?
A: 13.7 µM

Q: And the TGI [6]?
A: 34.8 µM

Q: What about the GI50 [7] of the same compound?
A: 7.45 µM

Q: And the TGI [7]?
A: > 100 µM

Q: And the GI50 [8]?
A: 11 µM

Q: What about the TGI [8] of the same compound?
A: > 100 µM

Q: And the GI50 [9]?
A: 7.72 µM

Q: What about the TGI [9] of the same compound?
A: 41.3 µM

Q: And the GI50 [10]?
A: 11.7 µM

Q: And the TGI [10]?
A: 30.3 µM

Q: What does the source list for `COc1ccc2cc(-c3c(-c4ccncc4)nc(-c4ccc(S(C)=O)cc4)n3C)ccc2c1` (stereo not drawn)?
A: GI50 [1]: 15.6 µM; TGI [1]: > 25 µM; GI50 [2]: 15.3 µM; TGI [2]: > 25 µM; GI50 [3]: 19.1 µM; TGI [3]: > 25 µM; GI50 [4]: > 21.8 µM; TGI [4]: > 25 µM; GI50 [5]: > 20.8 µM; TGI [5]: > 25 µM; GI50 [6]: 25 µM; TGI [6]: > 25 µM; GI50 [7]: 20.2 µM; TGI [7]: > 25 µM; GI50 [8]: > 21.3 µM; TGI [8]: > 25 µM; GI50 [9]: 24.5 µM; TGI [9]: > 25 µM; GI50 [10]: > 25 µM; TGI [10]: > 25 µM

Q: With `N#CN1CC[C@H](C(=O)Nc2ncc(-c3ccncc3)s2)C1` as the compound, how does the GI50 [1] read?
A: 0.0471 µM

Q: And the TGI [1]?
A: > 100 µM

Q: And the GI50 [2]?
A: < 0.0162 µM

Q: And the TGI [2]?
A: 0.989 µM

Q: What about the GI50 [3] of the same compound?
A: 0.0401 µM

Q: What about the TGI [3] of the same compound?
A: 3.2 µM

Q: What about the GI50 [4] of the same compound?
A: 0.109 µM

Q: And the TGI [4]?
A: 6.18 µM

Q: And the GI50 [5]?
A: 0.415 µM

Q: And the TGI [5]?
A: > 69.6 µM

Q: And the GI50 [6]?
A: 0.0844 µM

Q: What about the TGI [6] of the same compound?
A: 11 µM

Q: What about the GI50 [7] of the same compound?
A: 0.0348 µM

Q: And the TGI [7]?
A: > 100 µM

Q: And the GI50 [8]?
A: 0.0582 µM

Q: And the TGI [8]?
A: 12.7 µM

Q: And the GI50 [9]?
A: < 0.0129 µM

Q: What about the TGI [9] of the same compound?
A: 0.0694 µM

Q: What about the GI50 [10] of the same compound?
A: 0.0351 µM

Q: And the TGI [10]?
A: 68.4 µM

Q: How did the TGI [1] turn out when `CSC(=S)N/N=C(\C)c1cccc(C)n1` was run?
A: > 7.8 µM

Q: And the TGI [2]?
A: 1.99 µM

Q: And the TGI [3]?
A: 1.84 µM

Q: And the TGI [4]?
A: 33.9 µM

Q: What about the TGI [5] of the same compound?
A: > 100 µM

Q: And the TGI [6]?
A: 30.4 µM

Q: And the TGI [7]?
A: 3.48 µM

Q: What about the TGI [8] of the same compound?
A: 36.3 µM

Q: And the TGI [9]?
A: 10 µM

Q: And the TGI [10]?
A: 18 µM

Q: Which results are given for `Cn1cncc1CC1COC(=O)C1C(O)c1ccccc1` (stereo not drawn)?
A: TGI [1]: > 100 µM; TGI [2]: > 100 µM; TGI [3]: > 100 µM; TGI [4]: > 100 µM; TGI [5]: > 100 µM; TGI [6]: > 100 µM; TGI [7]: > 100 µM; TGI [8]: > 100 µM; TGI [9]: > 100 µM; TGI [10]: > 100 µM
